Results as given in patent publication US20190275040A1, “COMPOUNDS AND METHODS FOR TREATING OR PREVENTING ALZHEIMER'S DISEASE” (YALE UNIVERSITY, priority 2016, published 2019).
Like-named read-outs stand apart in the source and are kept apart here.

Legend:
Pyk2 [1] = target: T1, Pyk2 (Homo sapiens, UniProt Q14289); experiment: Pyk2 Ki of kinase inhibitors (CHEMBL & IUPHR-BPS database screen, Table 2); type: biochemical; conditions: Pyk2 versus Fyn
[2] = test system: primary hippocampal neurons; experiment: Dendritic spine motility in primary hippocampal neurons; type: cell-based, mouse; conditions: Aβo 24 hours; PF-719 1 μM, Y27632 10 μM
From the text: FIG. 11A: Representative images of dendritic spine motility by standard deviation projection of time-lapse image. […] The standard deviation value for each pixel is shown by thermal color scale. […] FIG. 11B: Quantification of spine motility, expressed as % of changed area of spines with subtraction of changed area of dendritic shaft as background (changed area=(ΔAspine/Aspine×100)−(ΔAshaft/Ashaft×100)). […] Data are graphed as mean±SEM (n=7-8 coverslips from 3 different cultures). **p<0.01, ***p<0.001 by ANOVA, Tukey's multiple comparisons test.
FIG. 18A: Representative images of dendritic spine motility by standard deviation projection of time stacks. […] To display the spine motility in time-lapse images, the time stack images over 5 min of each conditions were projected to standard deviation using Image J and color coated with thermal color scale. […] FIG. 18B: Quantification of spine motility, expressed as % of changed area of spines with subtraction of dendritic shaft area change (changed area=(ΔAspine/Aspine×100)−(ΔAshaft/Ashaft×100)). Mean±SEM (n=5 coverslips).
Time-lapse images were acquired for 5 minutes with 10 second intervals in Tyrode's solution using 60× objective lens driven Volocity software. Time-lapse images (31 time frames over 5 min) were subjected to standard deviation (STD) projection to visualize spine motility in single image and colorized with thermal scale using ImageJ software (NIH). Quantitative measurements of spine motility by calculating the changed area at individual dendritic spines were conducted by using ImageJ software by an observer unaware of treatment group.

[3] = test system: primary hippocampal neurons; experiment: Aβo-dependent dendritic spine loss in primary hippocampal neurons; type: cell-based, mouse; conditions: Aβo for 4 days
From the text: FIGS. 11A-11H illustrate the finding that Aβo-induced dendritic spine deficits are prevented by deletion of Pyk2 and RhoA inhibition in primary neurons. FIG. 11A: Representative images of dendritic spine motility by standard deviation projection of time-lapse image. […] The standard deviation value for each pixel is shown by thermal color scale. Scale bar, 10 μm. FIG. 11B: Quantification of spine motility, expressed as % of changed area of spines with subtraction of changed area of dendritic shaft as background (changed area=(ΔAspine/Aspine×100)−(ΔAshaft/Ashaft×100)). […]
It was considered whether the acute effects of Aβo-induced, Pyk2-mediated decrease on spine motility might be translated into alteration in spine number over longer time periods. Dendritic spine density was measured in populations of vehicle and Aβo treated primary hippocampal neuron cultures. […]
Analysis and quantification of data were performed with Volocity software after max intensity projection. The numbers of dendritic spines were counted manually to estimate the density of primary or secondary dendritic branch by observer unaware of drug or genotype. For each condition, at least 3 dendrites were measured from each neuron and 5-7 neurons were imaged per coverslip. […]

Pyk2 [4] = target: T1, Pyk2; conditions: cited from earlier work

T1 sequence (Q14289 whole entry, species assumed): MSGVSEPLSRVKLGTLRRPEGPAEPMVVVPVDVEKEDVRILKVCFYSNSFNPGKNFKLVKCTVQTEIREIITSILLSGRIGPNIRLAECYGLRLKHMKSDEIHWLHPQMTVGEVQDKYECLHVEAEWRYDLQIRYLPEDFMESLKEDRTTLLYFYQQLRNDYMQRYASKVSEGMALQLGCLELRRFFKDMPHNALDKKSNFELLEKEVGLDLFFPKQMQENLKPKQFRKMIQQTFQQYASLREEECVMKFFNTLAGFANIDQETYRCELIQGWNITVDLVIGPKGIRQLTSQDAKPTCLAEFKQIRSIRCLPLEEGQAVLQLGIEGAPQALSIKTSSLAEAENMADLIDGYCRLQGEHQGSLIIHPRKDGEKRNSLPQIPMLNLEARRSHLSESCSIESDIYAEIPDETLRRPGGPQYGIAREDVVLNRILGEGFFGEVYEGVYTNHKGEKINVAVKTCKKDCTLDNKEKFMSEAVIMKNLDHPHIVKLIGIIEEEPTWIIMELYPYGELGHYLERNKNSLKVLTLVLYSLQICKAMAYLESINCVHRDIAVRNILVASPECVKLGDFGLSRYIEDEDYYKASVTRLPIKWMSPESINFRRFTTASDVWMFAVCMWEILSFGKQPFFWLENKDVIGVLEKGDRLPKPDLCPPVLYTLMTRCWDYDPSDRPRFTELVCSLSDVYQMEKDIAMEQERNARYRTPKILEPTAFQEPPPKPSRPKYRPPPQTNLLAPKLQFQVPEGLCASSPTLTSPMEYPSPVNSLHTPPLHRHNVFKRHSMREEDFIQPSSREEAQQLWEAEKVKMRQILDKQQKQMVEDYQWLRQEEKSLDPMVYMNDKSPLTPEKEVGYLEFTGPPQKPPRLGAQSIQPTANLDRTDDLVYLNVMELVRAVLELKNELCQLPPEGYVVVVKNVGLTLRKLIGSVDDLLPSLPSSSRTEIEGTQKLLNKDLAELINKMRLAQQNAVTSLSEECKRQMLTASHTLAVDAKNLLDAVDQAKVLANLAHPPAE

Inhibition Character (Pyk2 [1]): Pyk2 selective
Compound: CCOc1ccc2nc(SCc3nc(N)nc(N4CCOCC4)n3)sc2c1 [PF-719, 4-(((6-ethoxybenzo[d]thiazol-2-yl)thio)methyl)-6-morpholino-1,3,5-triazin-2-amine]
Aβo-induced decrease in spine motility [2]: rescue fully the Aβo-induced decrease in spine motility
Aβo dependent spine loss [3]: rescue fully Aβo dependent spine loss
Ki (Pyk2 [4]; isolated Pyk2, read-out: Ki for isolated Pyk2): 0.015 µM
Ki (Pyk2 [4]; read-out: Pyk2 Ki): 0.01 µM
